# Reference: patent publication US12084472B2 (Ardelyx, Inc., priority 2015, dated 2024)
# Target: T1, human TGR5 (Homo sapiens, UniProt Q8TDU6)
# T1 construct: expressed in transfected cells; host or cells: HEK293
# T1 sequence (Q8TDU6 1-330): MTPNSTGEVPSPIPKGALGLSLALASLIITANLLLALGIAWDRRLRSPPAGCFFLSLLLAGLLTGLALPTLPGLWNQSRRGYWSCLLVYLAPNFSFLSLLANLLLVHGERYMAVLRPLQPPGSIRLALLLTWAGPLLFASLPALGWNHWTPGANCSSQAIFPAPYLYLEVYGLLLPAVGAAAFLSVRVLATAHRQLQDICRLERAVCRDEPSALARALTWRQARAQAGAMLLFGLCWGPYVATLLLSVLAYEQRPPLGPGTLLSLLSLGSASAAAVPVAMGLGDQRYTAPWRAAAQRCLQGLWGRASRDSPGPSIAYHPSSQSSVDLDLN
# Experiment: Cell-based TGR5 assay (cAMP generation, HTRF)
# Conditions: HEK293 cells stably transfected with human TGR5; cAMP by HTRF; 30 minutes at 37° C.; read-out: pEC50 Human TGR5 (converted)
# Method in brief: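 Read-out was HTRF detection of cAMP, converted to concentration via a standard curve and fitted (3-parameter logistic) for pEC50 and maximal response. Agonist stimulation used HEK293 cells stably transfected with human TGR5, incubated 30 min at 37° C in IBMX-containing buffer at 0.05 nM to 10 μM compound.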
row,Compound,EC50
1,"O=C([C@@H](O)[C@@H](O)[C@H](O)[C@@H](O)CO)N(CCCSc1ccc(Cl)c(COC2(c3cnccc3-c3ccccc3OC3CC3)CC2)c1)CC1CCOCC1 [Compound I-522, (2S,3S,4R,5S)-N-(3-{[4-chloro-3-({1-[4-(2-cyclopropoxyphenyl)pyridin-3-yl]cyclopropoxy}methyl)phenyl]sulfanyl}propyl)-2,3,4,5,6-pentahydroxy-N-(oxan-4-ylmethyl)hexanamide]",0.126 to 1 µM
2,"CN(C[C@H](O)[C@@H](O)[C@H](O)[C@H](O)CO)S(=O)(=O)c1ccc(Cl)c(COC2(c3cnccc3-c3ccccc3OC3CC3)CC2)c1 [Compound I-398, (2S,3R,4R,5R)-S-[4-chloro-3-({1-[4-(2-cyclopropoxyphenyl)pyridin-3-yl]cyclopropoxy}methyl)phenyl]-2,3,4,5,6-pentahydroxy-N-methylhexane-1-sulfonamido]",< 0.1 µM
3,"COCCCN(C[C@H](O)[C@@H](O)[C@H](O)[C@H](O)CO)C(=O)CCCCc1cc(Cl)c(COC2(c3cnccc3-c3ccccc3OC3CC3)CC2)cc1Cl [Compound I-220, 5-[2,5-dichloro-4-({1-[4-(2-cyclopropoxyphenyl)pyridin-3-yl]cyclopropoxy}methyl)phenyl]-N-(3-methoxypropyl)-N-[(2S,3R,4R,5R)-2,3,4,5,6-pentahydroxyhexyl]pentanamide]",0.126 to 1 µM
4,"O=C(NC[C@H](O)[C@@H](O)[C@H](O)[C@H](O)CO)N[C@H]1CC[C@@H](NS(=O)(=O)c2ccc(Cl)c(COC3(c4cnccc4-c4ccccc4OC4CC4)CC3)c2)CC1 [Compound I-419, 3-[(2S,3R,4R,5R)-2,3,4,5,6-pentahydroxyhexyl]-1-[(1s,4s)-4-[4-chloro-3-({1-[4-(2-cyclopropoxyphenyl)pyridin-3-yl]cyclopropoxy}methyl)benzenesulfonamido]cyclohexyl]urea]",< 0.1 µM
5,"C[C@@H](CCCC(=O)NC[C@H](O)[C@@H](O)[C@H](O)[C@H](O)CO)c1ccc(Cl)c(CNC2(c3cnccc3-c3ccccc3OC3CC3)CC2)c1 (single isomer, unassigned) [Compound I-314]",< 0.1 µM
6,"O=C(CCCCc1cc(Cl)c(COC2(c3cnccc3-c3ccccc3OC3CC3)CC2)cc1Cl)N(CCO)C[C@H](O)[C@@H](O)[C@H](O)[C@H](O)CO [Compound I-105, 5-[2,5-dichloro-4-({1-[4-(2-cyclopropoxyphenyl)pyridin-3-yl]cyclopropoxy}methyl)phenyl]-N-(2-hydroxyethyl)-N-[(2S,3R,4R,5R)-2,3,4,5,6-pentahydroxyhexyl]pentanamide]",< 0.1 µM
7,"CC(C)N(C[C@H](O)[C@@H](O)[C@H](O)[C@H](O)CO)C(=O)CCCSc1ccc(Cl)c(COC2(c3cnccc3-c3ccccc3OC3CC3)CC2)c1 [Compound I-668, 4-{[4-chloro-3-({1-[4-(2-cyclopropoxyphenyl)pyridin-3-yl]cyclopropoxy}methyl)phenyl]sulfanyl}-N-[(2S,3R,4R,5R)-2,3,4,5,6-pentahydroxyhexyl]-N-(propan-2-yl)butanamide]",< 0.1 µM
8,"Cc1cc(COC2(c3cnccc3-c3ccccc3OC3CC3)CC2)c(Cl)cc1CCCCNC(=O)NC[C@H](O)[C@@H](O)[C@H](O)[C@H](O)CO [Compound I-65, 1-[4-[5-chloro-4-([1-[4-(2-cyclopropoxyphenyl)pyridin-3-yl]cyclopropoxy]methyl)-2-methylphenyl]butyl]-3-[(2S,3R,4R,5R)-2,3,4,5,6-pentahydroxyhexyl]urea]",< 0.1 µM
9,"O=C(NCCOCCSc1ccc(Cl)c(COC2(c3cnccc3-c3ccccc3OC3CC3)CC2)c1)N[C@@H](CO)[C@@H](O)[C@H](O)[C@H](O)CO [Compound I-637, 1-[2-(2-{[4-chloro-3-({1-[4-(2-cyclopropoxyphenyl)pyridin-3-yl]cyclopropoxy}methyl)phenyl]sulfanyl}ethoxy)ethyl]-3-[(2S,3R,4S,5R)-1,3,4,5,6-pentahydroxyhexan-2-yl]urea]",< 0.1 µM
10,"CC(C)N(CCCCNC(=O)N[C@@H](CO)[C@@H](O)[C@H](O)[C@H](O)CO)S(=O)(=O)c1ccc(Cl)c(CNC2(c3cnccc3-c3ccccc3OC3CC3)CC2)c1 [Compound I-744, 4-chloro-3-(((1-(4-(2-cyclopropoxyphenyl)pyridin-3-yl)cyclopropyl)amino)methyl)-N-isopropyl-N-(4-(3-((2S,3R,4S,5R)-1,3,4,5,6-pentahydroxyhexan-2-yl)ureido)butyl)benzenesulfonamide]",< 0.1 µM
11,"O=C(/C=C/C1CN(S(=O)(=O)c2ccc(Cl)c(COC3(c4cnccc4-c4ccccc4OC4CC4)CC3)c2)C1)NC[C@H](O)[C@@H](O)[C@H](O)[C@H](O)CO [Compound I-446, (2E)-3-{1-[4-chloro-3-({1-[4-(2-cyclopropoxyphenyl)pyridin-3-yl]cyclopropoxy}methyl)benzenesulfonyl]azetidin-3-yl}-N-[(2S,3R,4R,5R)-2,3,4,5,6-pentahydroxyhexyl]prop-2-enamide]",< 0.1 µM
12,"N[C@@H](CCCCNS(=O)(=O)c1ccc(COC2(c3cnccc3-c3ccccc3OC3CC3)CC2)c(Cl)c1)C(=O)O [Compound I-484, (S)-2-amino-6-(3-chloro-4-((1-(4-(2-cyclopropoxyphenyl)pyridine-3-yl)cyclopropoxy)methyl)phenylsulfonamido)hexanoic acid]",< 0.1 µM
13,"O=C(O)CCN(C[C@H](O)[C@@H](O)[C@H](O)[C@H](O)CO)C(=O)CCCCc1cc(Cl)c(COC2(c3cnccc3-c3ccccc3OC3CC3)CC2)cc1Cl [Compound I-183, 3-{5-[2,5-dichloro-4-({1-[4-(2-cyclopropoxyphenyl)pyridin-3-yl]cyclopropoxy}methyl)phenyl]-N-[(2S,3R,4R,5R)-2,3,4,5,6-pentahydroxyhexyl]pentanamido}propanoic acid]",< 0.1 µM
14,"Cc1cc(COC2(c3cnccc3-c3ccccc3OC3CC3)CC2)c(Cl)cc1CCCCNC(=O)N[C@H](CCCCN)C(=O)O [Compound I-119, (2R)-6-amino-2-[({4-[5-chloro-4-({1-[4-(2-cyclopropoxyphenyl)pyridin-3-yl]cyclopropoxy}methyl)-2-methylphenyl]butyl}carbamoyl)amino]hexanoic acid]",0.126 to 1 µM
15,"CN(C[C@H](O)[C@@H](O)[C@H](O)[C@H](O)CO)C(=O)CCC[S+]([O-])c1ccc(Cl)c(CNC2(c3cnccc3-c3ccccc3OC3CC3)CC2)c1 (stereo partly drawn) [Compound I-647, 4-{4-chloro-3-[({1-[4-(2-cyclopropoxyphenyl)pyridin-3-yl]cyclopropyl}amino)methyl]benzenesulfinyl}-N-methyl-N-[(2S,3R,4R,5R)-2,3,4,5,6-pentahydroxyhexyl]butanamide]",0.126 to 1 µM
16,"O=C(NCCCCCSc1ccc(Cl)c(COC2(c3cnccc3-c3ccccc3OC3CC3)CC2)c1)N[C@H]1CC[C@H](NC(=O)NC[C@H](O)[C@@H](O)[C@H](O)[C@H](O)CO)CC1 [Compound I-630, 1-(5-{[4-chloro-3-({1-[4-(2-cyclopropoxyphenyl)pyridin-3-yl]cyclopropoxy}methyl)phenyl]sulfanyl}pentyl)-3-[(1r,4r)-4-({[(2S,3R,4R,5R)-2,3,4,5,6-pentahydroxyhexyl]carbamoyl}amino)cyclohexyl]urea]",< 0.1 µM
